We go through one compound from patent US20200138825A1, “METHOD OF TREATING MALIGNANT RHABDOID TUMOR OF THE OVARY (MRTO)/SMALL CELL CANCER OF THE OVARY OF THE HYPERCALCEMIC TYPE(SCCOHT) WITH AN EZH2 INHIBITOR” (Epizyme, Inc., priority 2015, published 2020).

Holding throughout (type): cell-based
In one experiment the test system is Calu-3. The experiment can be described thus: EZH2 inhibition sensitivity, Calu-3. The settings on record: Homo sapiens, no mutations or info not available in SMARCA2, SMARCA4, KRAS, read-out: Compound D IC50. The source says:
(§1) Sensitivity to EZH2 inhibition was examined in various cancer cell lines with similar mutations or loss of SWI/SNF components. Table 7 summarizes the EZH2 activity in additional SWI/SNF altered cancers, including lung adenocarcinoma.

The subject of another experiment is HCC827. The experiment can be described thus: EZH2 inhibition sensitivity, HCC827 (Proquinase 3D). The settings on record: Homo sapiens, Proquinase 3D IC50, no mutations or info not available in SMARCA2, SMARCA4, KRAS, read-out: Compound D IC50.
Excerpt: as §1

The subject of a further experiment is NClH838. The experiment can be described thus: EZH2 inhibition sensitivity, NClH838. To be noted: SMARCA4 Mutations, read-out: Compound D IC50.
Excerpt: as §1

Another experiment deals with A549. Description: EZH2 inhibition sensitivity, A549 (Proquinase 3D). To be noted: Homo sapiens, Proquinase 3D IC50, SMARCA4 Mutations, KRAS Mutations, read-out: Compound D IC50.
Excerpt: as §1

A further experiment concerns H3K27me3 in Bin-67 cells. Description: Western Blot of H3K27me3 levels in Bin-67 cells. The settings on record: day 14, all concentrations.
The next experiment has as its system H460. Description: EZH2 inhibition sensitivity, H460 (Proquinase 3D). The settings on record: Homo sapiens, NCI-H460, Proquinase 3D IC50, KRAS Mutations, read-out: Compound D IC50.
Excerpt: as §1

The subject of a further experiment is A427. The experiment can be described thus: EZH2 inhibition sensitivity, A427. To be noted: Homo sapiens, A-427, SMARCA2 mRNA/protein loss, SMARCA4 Mutations, KRAS Mutations, read-out: Compound D IC50.
Excerpt: as §1

The next experiment concerns NClH1993. Description: EZH2 inhibition sensitivity, NClH1993. The settings on record: no mutations or info not available in SMARCA2, SMARCA4, KRAS, read-out: Compound D IC50.
Excerpt: as §1

The subject of experiment [1] is ARID1A mutated ovarian cell lines. The experiment can be described thus: Long term 2D proliferation assay, ARID1A mutated ovarian cell lines. The settings on record: day 14, ARID1A mutated ovarian cell lines. The method, then: (§2) FIG. 13B is a pair of graphs depicting the results of a long term 2D proliferation assay for Compound D in SMARCA4 and ARID1A ovarian cell lines. The day 14 IC50 values are shown.
(§3) A panel of ovarian cancer cell lines of different histologies was subjected to proliferation assays in 2-D tissue culture for 14 days in the presence of increasing concentrations of an EZH2 inhibitor. Selected cell lines were also tested in 3-D cultures. […] In contrast, mutations in ARID1A, another SWI/SNF component, were not observed to broadly confer sensitivity to EZH2 inhibition in ovarian cancer cell lines in either 2-D or 3-D in vitro assays.

The next experiment deals with NCl-H522. Description: EZH2 inhibition sensitivity, NCl-H522. To be noted: SMARCA2 mRNA/protein loss, SMARCA4 Mutations, KRAS No mutations or info not available, read-out: Compound D IC50.
Excerpt: as §1

A further experiment deals with SCCOHT cell line Bin-67. The experiment can be described thus: 14 day proliferation study in Bin-67. To be noted: 336 h; Bin-67, 14 day proliferation, 0.01-10 μM. The method, then:
FIG. 13C is a graph displaying the results of a 14 day proliferation study with Compound D in the SMARCA4- and SMARCA2-negative small cell carcinoma of the ovary, hypercalcemic type (SCCOHT) cell line Bin-67. Growth curves are shown for 8 different treatment conditions ranging from 0.01-10 μM.
as §3

In another experiment the test system is SCCOHT cell lines. Description: 14-day proliferation assays, SCCOHT cell lines. To be noted: 336 h, three SCCOHT cell lines. The method, then:
as §3

The next experiment deals with NCl-H23. The experiment can be described thus: EZH2 inhibition sensitivity, NCl-H23. The settings on record: SMARCA2 mRNA/protein loss, SMARCA4 Mutations, KRAS Mutations, read-out: Compound D IC50.
Excerpt: as §1

The next experiment has as its system NClH1563. Description: EZH2 inhibition sensitivity, NClH1563. The settings on record: no mutations or info not available in SMARCA2, SMARCA4, KRAS, read-out: Compound D IC50.
Excerpt: as §1

A further experiment deals with NClH2122. The experiment can be described thus: EZH2 inhibition sensitivity, NClH2122. To be noted: KRAS Mutations, read-out: Compound D IC50.
Excerpt: as §1

The test system of another experiment is NClH1734. Description: EZH2 inhibition sensitivity, NClH1734. The settings on record: KRAS Mutations, read-out: Compound D IC50.
Excerpt: as §1

A further experiment relates to NClH2110. Description: EZH2 inhibition sensitivity, NClH2110. The settings on record: no mutations or info not available in SMARCA2, SMARCA4, KRAS, read-out: Compound D IC50.
Excerpt: as §1

The subject of experiment [2] is ARID1A-mutated ovarian cell lines. Description: 3D growth assay (Scivax Nanoculture), ARID1A-mutated ovarian cell lines. The settings on record: after 14 days. The method, then:
3D assays were performed using the Scivax Nanoculture technology whereby the micro-patterned scaffold mimics the ECM.
as §3

For another experiment, the system named is NClH1373. Description: EZH2 inhibition sensitivity, NClH1373. To be noted: KRAS Mutations, read-out: Compound D IC50.
Excerpt: as §1

The subject of another experiment is Calu-6. Description: EZH2 inhibition sensitivity, Calu-6. The settings on record: Homo sapiens, KRAS Mutations, read-out: Compound D IC50.
Excerpt: as §1

In the next experiment the test system is NClH1793. The experiment can be described thus: EZH2 inhibition sensitivity, NClH1793. To be noted: SMARCA4 Mutations, read-out: Compound D IC50.
Excerpt: as §1

The next experiment concerns NCl-H1299. The experiment can be described thus: EZH2 inhibition sensitivity, NCl-H1299. To be noted: SMARCA4 Mutations, read-out: Compound D IC50.
Excerpt: as §1

The test system of experiment [3] is SMARCA4-negative ovarian cell lines. Description: Long term 2D proliferation assay, SMARCA4-negative ovarian cell lines. The settings on record: day 14, SMARCA4-negative cell lines. The method, then:
as §2, §3

The test system of a further experiment is NCl-H441. Description: EZH2 inhibition sensitivity, NCl-H441 (Proquinase 3D). To be noted: Proquinase 3D IC50, KRAS Mutations, read-out: Compound D IC50.
Excerpt: as §1

Each structure is given as a SMILES string.

Regarding `CCN(c1cc(-c2ccc(CN3CCOCC3)cc2)cc(C(=O)NCc2c(C)cc(C)[nH]c2=O)c1C)[C@H]1CC[C@H](N(C)C)CC1` [Compound D], the IC50 with Calu-3 is 10 µM; in the experiment on HCC827 it was 10 µM; in the experiment on NClH838, 10 µM; in the experiment on A549, 10 µM; with H460 it was 10 µM; in the experiment on A427, 2.3 µM. The concentration for half-maximal inhibition (IC50) in the experiment with NClH1993 was 10 µM; in the experiment on NCl-H522, 1.14 µM; with SCCOHT cell line Bin-67, 0.01 µM; with SCCOHT cell lines, 0.005 to 0.017 µM; in the experiment with NCl-H23, 10 µM; in the experiment with NClH1563, 10 µM. Moreover, the IC50 in the experiment on NClH2122 turned out to be 10 µM; in the experiment with NClH1734 it was 10 µM; in the experiment with NClH2110, 10 µM; in the experiment with NClH1373 it was 10 µM; in the experiment on Calu-6 it was 0.001 µM; in the experiment on NClH1793, 10 µM. In addition, the IC50 with NCl-H1299 and in the experiment with NCl-H441 was 10 µM each time. Moreover, the H3K27me3 levels entry in the experiment on H3K27me3 in Bin-67 cells is given as “completely reduced”. For the same compound, the anti-proliferative effects entry in experiment [1] is listed as “do not”; in experiment [3], “anti-proliferative effects”. Further, the 3D growth effects result in experiment [2] is on record as “No effects were observed”.
